One may read the EC50 as the concentration needed to bring the measured effect to its halfway point.

Here are results for 23 compounds from patent US20190021380A1 (priority 2014, published 2019).

The target of test [1] is T1, T1R1/T1R3 receptor (Felis catus, UniProt E3UMS2). The experiment in a line: Example 8: PAM screening of transmembrane compounds with GMP and Ala on T1R1/T1R3 in HEK293 cells. The class given is cell-based, cat. To be noted: for T1R1/T1R3 PAM: compound at 0.01, 0.1, 1 mM in combination with GMP+Ala mixtures (T1-T4), PAM if response to the combination is greater than the sum of the responses to compound alone and to GMP+Ala alone; for PAM profile assessment: in the presence of GMP and Alanine, in words. From the text:
HEK293 cells that stably express T1R3 and inducibly express T1R1 were exposed to transmembrane compound alone or in combination with Ala and GMP to activate the umami receptor. Activation of the T1R1/T1R3 receptor was detected by a change in intracellular calcium levels using a calcium sensitive fluorescent dye and/or a luminescent reporter system. […] A FLIPR® Tetra or a FlexStation® 3 was used for data capture.
Dose response curves were generated for each transmembrane compound at concentrations of 0 (buffer only), 0.01, 0.1 and 1 mM, wherein each of the three concentrations of transmembrane compound was tested in combination with 0.03 mM GMP+100 mM Ala (T1); 0.6 mM GMP+10 mM Ala (T2); 0.1 mM GMP+60 mM Ala (T3) and 0.3 mM GMP+60 mM Ala (T4). The T4 mixture was also tested in a 2-fold dilution series (the T4(X) Concentration). In these experiments, the first test concentration was 2× (2 times) the T4 concentration. The subsequent test concentrations were 2-fold dilutions from that (1×, 0.5× etc.). This dilution series was tested with or without the addition of the test compound at a constant 0.3 mM concentration.
Activation of the umami receptor was also determined in the presence of 1 mM GMP+100 mM Ala to generate a “maximum” umami receptor activation level.

The target in test [2] is T1, T1R1/T1R3 receptor. The experiment in a line: Example 8: agonist screening of transmembrane compounds on T1R1/T1R3 in HEK293 cells. The class given is cell-based, cat. The conditions noted are these: for T1R1/T1R3 agonist: transmembrane compound tested at 0.01, 0.1 and 1 mM, HEK293 cells expressing T1R1/T1R3, calcium dye and/or luminescent reporter; for agonist profile assessment: transmembrane compound alone, in words. The procedure: HEK293 cells that stably express T1R3 and inducibly express T1R1 were exposed to a transmembrane compound. Activation of the T1R1/T1R3 receptor was detected by a change in intracellular calcium levels using a calcium sensitive fluorescent dye and/or a luminescent reporter system. […] A FLIPR® Tetra or a FlexStation® 3 was used for data capture.
Each transmembrane compound was tested at concentrations of 0.01 mM, 0.1 mM, and 1 mM. […] To generate the dose response curves, the transmembrane compound was tested at concentrations of between 0.0001 mM and 1.0 mM in the presence of GMP and Ala.

Test [3] concerns the target T1, T1R1/T1R3 receptor. The experiment in a line: cell-based. The class given is cell-based. From the text: (§1) HEK293 cells that stably express T1R3 and inducibly express T1R1 were exposed to transmembrane compounds alone or in combination with one or more amino acids and/or one or more nucleotides to activate the umami receptor. Activation of the T1R1/T1R3 receptor was detected by a change in intracellular calcium levels using a calcium sensitive fluorescent dye. Cells that express T1R3 but not T1R1 were used as a control. A FLIPR® Tetra or a FlexStation® 3 was used for data capture.
(§2) In each experiment, serial dilutions of up to 10 mM of the transmembrane compound were added to the T1R1/T1R3-expressing cells.

Test [4] concerns the target T1, T1R1/T1R3 receptor. Put plainly: Example 6: activation of T1R1/T1R3 by transmembrane compounds, conducted as in Example 5. The class given is cell-based. To be noted: T1R1/T1R3 EC50, +0.2 mM IMP.
Source text: as §1, §2

Test [5] deals with T1, T1R1/T1R3 receptor. The class given is cell-based. To be noted: threshold in the presence of 0.2 mM IMP; CNBD = Could not be determined.
Source text: as §1, §2

Molecules are shown by their SMILES. Several values for one entry are separate records, joined by “and”; a condition that tells them apart may be missing. Identical values can stand only once.

`O=C(CN1C(=O)C(=O)N(CCc2cccs2)C1=O)c1ccccc1` [Formula 6, 1-(2-oxo-2-phenylethyl)-3-(2-(thiophen-2-yl)ethyl)imidazolidine-2,4,5-trione]: on T1R1/T1R3 receptor [1], the “T1R1/T1R3 PAM” value is given as “No”. Besides, the T1R1/T1R3 agonist result on T1R1/T1R3 receptor [2] is recorded as “No”.

As for `O=C(CN1C(=O)C(=O)N(CCc2cccs2)C1=O)c1ccc2c(c1)OCO2` [Formula 7, 1-(2-(benzo[d][1,3]dioxol-5-yl)-2-oxoethyl)-3-(2-(thiophen-2-yl)ethyl)imidazolidine-2,4,5-trione], the “T1R1/T1R3 PAM” value on T1R1/T1R3 receptor [1] is recorded as “No”. The T1R1/T1R3 agonist entry at T1R1/T1R3 receptor [2] is recorded as “No”.

Turning to `O=C(CN1C(=O)C(=O)N(Cc2ccccc2)C1=O)c1ccc2c(c1)OCCCO2` [Formula 8, 1-benzyl-3-(2-(3,4-dihydro-2H-benzo[b][1,4]dioxepin-7-yl)-2-oxoethyl)imidazolidine-2,4,5-trione], on T1R1/T1R3 receptor [1], the “T1R1/T1R3 PAM” value is given as “Weak PAM” and the PAM profile assessment result was “PAM activity”. Moreover, at T1R1/T1R3 receptor [2], the T1R1/T1R3 agonist result was “No”.

As for `N#Cc1cccc(NC(=O)CN2C(=O)C(=O)N(Cc3ccccc3)C2=O)c1` [Formula 9, 2-(3-benzyl-2,4,5-trioxoimidazolidin-1-yl)-N-(3-cyanophenyl)acetamide], the “T1R1/T1R3 PAM” value at T1R1/T1R3 receptor [1] was “No”. On T1R1/T1R3 receptor [2], the T1R1/T1R3 agonist result is recorded as “No”.

For `COc1ccccc1C(=O)CN1C(=O)C(=O)N(Cc2cccs2)C1=O` [Formula 10, 1-(2-(2-methoxyphenyl)-2-oxoethyl)-3-(thiophen-2-ylmethyl)imidazolidine-2,4,5-trione], on T1R1/T1R3 receptor [1], the “T1R1/T1R3 PAM” value is recorded as “No”. On T1R1/T1R3 receptor [2], the T1R1/T1R3 agonist result is on record as “No”.

Consider `O=C(CN1C(=O)C(=O)N(CCc2cccs2)C1=O)c1cccc2ccccc12` [Formula 11, 1-(2-(naphthalen-1-yl)-2-oxoethyl)-3-(2-(thiophen-2-yl)ethyl)imidazolidine-2,4,5-trione], for which the “T1R1/T1R3 PAM” value at T1R1/T1R3 receptor [1] is given as “No”. Besides, the T1R1/T1R3 agonist result at T1R1/T1R3 receptor [2] is “No”.

In the case of `O=C(CN1C(=O)C(=O)N(Cc2ccccc2)C1=O)c1ccc(Cl)s1` [Formula 12, 1-benzyl-3-(2-(5-chlorothiophen-2-yl)-2-oxoethyl)imidazolidine-2,4,5-trione], at T1R1/T1R3 receptor [1], the “T1R1/T1R3 PAM” value is listed as “Weak PAM”. Further, on T1R1/T1R3 receptor [2], the T1R1/T1R3 agonist result is reported as “No”.

Turning to `O=C1C(=O)N(Cc2ccccc2)C(=S)N1Cc1ccccc1` [Formula 13, 1,3-dibenzyl-2-thioxoimidazolidine-4,5-dione], on T1R1/T1R3 receptor [1], the “T1R1/T1R3 PAM” value was “No”. For the same compound, the T1R1/T1R3 agonist entry on T1R1/T1R3 receptor [2] is “No”.

As for `CCCC(CCC)NC(=O)c1ccc2c(c1)OCO2` [Formula 14, N-(heptan-4-yl)benzo[d][1,3]dioxole-5-carboxamide], on T1R1/T1R3 receptor [1], the “T1R1/T1R3 PAM” value is listed as “Yes”. Besides, the T1R1/T1R3 agonist entry on T1R1/T1R3 receptor [2] is “Yes”.

Regarding `COC(=O)[C@H](Cc1ccccc1)NCc1ccccc1.Cl` [Formula 15, N-Benzyl-L-phenylalanine methyl ester hydrochloride], the “T1R1/T1R3 PAM” value on T1R1/T1R3 receptor [1] is given as “Yes”. On T1R1/T1R3 receptor [2], the T1R1/T1R3 agonist entry is reported as “Yes”.

As to `COC(=O)[C@@H](Cc1ccccc1)NCc1ccccc1.Cl` [Formula 16, N-Benzyl-D-Phenylalanine methyl ester hydrochloride], the “T1R1/T1R3 PAM” value at T1R1/T1R3 receptor [1] is recorded as “Yes”. Moreover, the T1R1/T1R3 agonist result on T1R1/T1R3 receptor [2] is reported as “Yes”.

For `COC(=O)[C@H](CC(C)C)NCc1ccccc1.Cl` [Formula 18, Benzyl-L-leucine methyl ester hydrochloride], the “T1R1/T1R3 PAM” value at T1R1/T1R3 receptor [1] is on record as “Yes”. For the same compound, on T1R1/T1R3 receptor [2], the T1R1/T1R3 agonist result is given as “Yes”.

As for `COC(=O)C(NCc1ccccc1)c1ccccc1` (centres unmarked) [Formula 19, Methyl-2-benzylamino-2-phenylacetate], the “T1R1/T1R3 PAM” value at T1R1/T1R3 receptor [1] is “Yes”. Further, the T1R1/T1R3 agonist result at T1R1/T1R3 receptor [2] is “Yes”.

With `Cl.N[C@@H](Cc1ccccc1)C(=O)OCc1ccccc1` [Formula 20, L-Phenylalanine benzyl ester hydrochloride], the “T1R1/T1R3 PAM” value on T1R1/T1R3 receptor [1] is recorded as “Yes”. For the same compound, the T1R1/T1R3 agonist entry at T1R1/T1R3 receptor [2] is on record as “Yes”.

For `N[C@@H](Cc1ccc(O)cc1)C(=O)OCc1ccccc1` [Formula 21, L-Tyrosine benzyl ester], the “T1R1/T1R3 PAM” value on T1R1/T1R3 receptor [1] is reported as “No”. In addition, the T1R1/T1R3 agonist entry on T1R1/T1R3 receptor [2] was “No”.

Turning to `O=C(O)[C@H](Cc1ccc(O)cc1)NCc1ccccc1` [Formula 22, N-Benzyl-L-Tyrosine], the “T1R1/T1R3 PAM” value at T1R1/T1R3 receptor [1] is “No”. Besides, the T1R1/T1R3 agonist entry at T1R1/T1R3 receptor [2] is given as “No”.

As to `Cc1ccc(CNC(Cc2ccccc2)C(=O)O)cc1` (centres unmarked) [Formula 23, 2-((4-methylbenzyl)amino)-3-phenylpropanoic acid], the “T1R1/T1R3 PAM” value on T1R1/T1R3 receptor [1] was “No”. The T1R1/T1R3 agonist entry at T1R1/T1R3 receptor [2] was “No”.

For `O=C1CC(=O)N(Cc2ccccc2)C(=O)N1Cc1ccccc1` [Formula 24, 1,3-dibenzylpyrimidine-2,4,6(1H,3H,5H)-trione], the “T1R1/T1R3 PAM” value on T1R1/T1R3 receptor [1] is “No”. Moreover, the T1R1/T1R3 agonist entry at T1R1/T1R3 receptor [2] was “Yes”.

For `Cl.N[C@@H](Cc1ccccc1)C(=O)OCc1ccccc1` [L-Phenylalanine benzyl ester hydrochloride], the PAM profile assessment result at T1R1/T1R3 receptor [1] is listed as “PAM activity”. Besides, the agonist profile assessment result on T1R1/T1R3 receptor [2] was “agonist”.

As to `COC(=O)C(NCc1ccccc1)c1ccccc1` (centres unmarked) [Methyl-2-benzylamino-2-phenylacetate], at T1R1/T1R3 receptor [1], the PAM profile assessment entry is “PAM activity”. The agonist profile assessment entry at T1R1/T1R3 receptor [2] is “agonist”.

Consider `CCCC(CCC)NC(=O)c1ccc2c(c1)OCO2` [N-(heptan-4-yl)benzo[d][1,3]dioxole-5-carboxamide], for which the PAM profile assessment entry at T1R1/T1R3 receptor [1] is reported as “PAM activity”. For the same compound, the “Max resp ΔF/F +IMP (0.2 mM)” value at T1R1/T1R3 receptor [3] (in the presence of 0.2 mM IMP) is 1.4725 and 1.393 and 1.473. Moreover, the “Max resp % of Ala +IMP (0.2 mM)” value at T1R1/T1R3 receptor [3] (in the presence of 0.2 mM IMP, relative to Ala) is 165.8% and 119.6%. Also, the “Max resp ΔF/F +Alanine (20 mM)” value on T1R1/T1R3 receptor [3] (in the presence of 20 mM alanine) was 1.7725 and 1.2. In addition, the “Max resp % of IMP +Alanine (20 mM)” value at T1R1/T1R3 receptor [3] (in the presence of 20 mM alanine, relative to IMP) is 118.2% and 142.7%. Moreover, the agonist profile assessment result at T1R1/T1R3 receptor [2] is “agonist”.

With `COC(=O)[C@@H](Cc1ccccc1)NCc1ccccc1.Cl` [N-Benzyl-D-Phenylalanine methyl ester hydrochloride], on T1R1/T1R3 receptor [1], the PAM profile assessment result was “PAM activity”. Further, the agonist profile assessment result on T1R1/T1R3 receptor [2] is recorded as “agonist”.

`COC(=O)[C@H](Cc1ccccc1)NCc1ccccc1` [N-Benzyl-L-phenylalanine methyl ester]: the EC50 at T1R1/T1R3 receptor [4] turned out to be 20 ± 1 µM. Moreover, the “Thres +IMP (0.2 mM)” value on T1R1/T1R3 receptor [5] is 0.003 mM. Further, at T1R1/T1R3 receptor [1], the PAM profile assessment result is “PAM activity”. The agonist profile assessment result on T1R1/T1R3 receptor [2] is “agonist”.
